Strand notation (5' to 3'): a small letter for the sugar, then the base; units joined by * are phosphorothioate-linked, units joined directly phosphodiester-linked; [ ] holds rarer units or linkages, { } end groups; capitals alone tell only the bases. k = constrained ethyl (cEt); [5mC] = 5-methylcytosine; d = 2'-deoxy (DNA)
System: Yap1 mRNA
Assay: Antisense inhibition of human Yap1 in A-431 cells by cEt gapmers, single dose (Example 3, RTS36584)
Format: cell-based
Outline: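 Read-out is Yap1 mRNA as percent of untreated control, by quantitative RT-PCR normalized to total RNA (RiboGreen). Cells (A-431) received 2,000 nM of 3-10-3 cEt phosphorothioate gapmer via free uptake for roughly 48 hours.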

[1] = Table 9, A-431 cells, 5,000 cells per well, free uptake, 2,000 nM, approximately 48 hours, RTS36584, normalized to RIBOGREEN, Yap1 mRNA relative to untreated control cells
[2] = Table 35, Yap1 mRNA as percent of untreated control, 3-10-3 cEt gapmers targeting SEQ ID NO: 1 and 2, single dose
[3] = Table 8, A-431 cells, 5,000 cells per well, free uptake, 2,000 nM, approximately 48 hours, RTS36584, normalized to RIBOGREEN, Yap1 mRNA relative to untreated control cells
[4] = Table 26, Yap1 mRNA by 3-10-3 cEt gapmers targeting SEQ ID NO.: 1, and 2, percent of untreated control

958436 (antisense kT*k[5mC]*k[5mC]*d[5mC]*dT*dT*dG*dA*d[5mC]*dG*dG*dA*dG*kG*k[5mC]*k[5mC]) [Compound 958436]
YAP1 (% UTC) [1]: 124 % UTC

958461 (antisense kG*k[5mC]*k[5mC]*dG*dA*dA*dG*d[5mC]*dA*dG*dT*dT*d[5mC]*kT*kT*kG) [Compound 958461]
YAP1 (% UTC) [1]: 79 % UTC

1074581 (DNA kA*kA*k[5mC]*d[5mC]*dA*d[5mC]*dT*dA*dT*dA*dA*dA*dG*k[5mC]*kT*kT; antisense) [compound 1074581]
YAP1 (% UTC) [2]: 18 % UTC

958399 (antisense kG*kA*k[5mC]*d[5mC]*dA*dA*d[5mC]*dT*dA*d[5mC]*dT*dT*dG*kA*kA*kG) [Compound 958399]
YAP1 (% UTC) [3]: 45 % UTC

958782 (antisense kA*kT*kG*dG*dT*d[5mC]*dT*d[5mC]*d[5mC]*d[5mC]*dA*dG*dT*k[5mC]*kA*k[5mC]) [Compound 958782]
YAP1 (% UTC) (Table 10, A-431 cells, 5,000 cells per well, free uptake, 2,000 nM oligonucleotide, approx. 48 hours, primer probe set RTS36584, Yap1 mRNA normalized to RIBOGREEN, percent of untreated control): 20 % UTC

1075724 (k[5mC]*kT*kA*dT*d[5mC]*dT*dG*dT*d[5mC]*dA*dG*dT*dT*kA*kT*k[5mC]; antisense) [compound 1075724]
YAP1 (% UTC) [4]: 44 % UTC

958356 (antisense kT*kT*kG*dA*dA*dG*dA*dA*dG*dG*dA*dG*dT*k[5mC]*kG*kG) [Compound 958356]
YAP1 (% UTC) [3]: 9 % UTC

1075509 (k[5mC]*kA*kT*dA*dA*dT*d[5mC]*d[5mC]*d[5mC]*dT*dG*dA*d[5mC]*kT*kT*kG; antisense) [compound 1075509]
YAP1 (% UTC) [2]: 81 % UTC

1076533 (kA*kT*kT*dT*dT*dT*dA*dG*dT*d[5mC]*d[5mC]*dA*dG*kT*kG*kG; antisense) [compound 1076533]
YAP1 (% UTC) [2]: 9 % UTC

1075221 (k[5mC]*kA*kT*dT*dA*dT*d[5mC]*d[5mC]*dG*dG*dG*dA*dG*kA*kG*k[5mC]; antisense) [compound 1075221]
YAP1 (% UTC) [2]: 10 % UTC

1074382 (kA*kG*kG*dT*dA*dG*dT*d[5mC]*dT*dG*dG*dG*dA*kA*kA*k[5mC]; antisense) [compound 1074382]
YAP1 (% UTC) (Table 28, Yap1 mRNA as percent of untreated control, 3-10-3 cEt gapmers targeting SEQ ID NO.: 1, and 2): 8 % UTC

958638 (antisense kG*kT*kG*d[5mC]*dG*dG*dA*dG*d[5mC]*dG*d[5mC]*dG*d[5mC]*kG*kG*kA) [Compound 958638]
YAP1 (% UTC) (Table 11, A-431 cells, 5,000 cells per well, free uptake, 2,000 nM oligonucleotide, approx. 48 hours, primer probe set RTS36584, Yap1 mRNA normalized to RIBOGREEN, percent of untreated control): 127 % UTC

958819 (kT*kG*k[5mC]*dT*dT*d[5mC]*dA*dA*d[5mC]*dA*dT*dT*dG*kT*kT*k[5mC]; antisense) [Compound 958819]
YAP1 (% UTC) (Table 12, A-431 cells, 5,000 cells per well, free uptake, 2,000 nM modified oligonucleotide, approx. 48 hours, RTS36584, normalized to RIBOGREEN, Yap1 mRNA relative to untreated control cells): 9 % UTC

1074668 (antisense kT*k[5mC]*k[5mC]*d[5mC]*dA*dA*d[5mC]*dA*dA*d[5mC]*dA*dT*dG*k[5mC]*kT*kA) [compound 1074668]
YAP1 (% UTC) [4]: 20 % UTC

Source: patent publication US11214803B2, “Modulators of YAP1 expression” (Ionis Pharmaceuticals, Inc., priority 2019, dated 2022)
